The target in assay [1] is T1, Induced myeloid leukemia cell differentiation protein Mcl-1 (Homo sapiens, UniProt Q07820). Put plainly: Inhibition of biotinylated Bim peptide (81 to 106 residues) binding to His-tagged Mcl-1 (171 to 327 residues) (unknown origin) expressed in Escherichia coli BL21 (DE3) cells preincubated for 1 hr followed by biotinylated Bim peptide addition measured after 2 hrs by ELISA.

The subject of a further assay is LP-1. Put plainly: Cytotoxicity against human LP-1 cells after 24 hrs by MTT assay. The settings on record: LP-1, 24 h. It is filed as functional, cell-based.
In assay [2] the target is T1, Induced myeloid leukemia cell differentiation protein Mcl-1. Put plainly: Displacement of Flu-BID/FAM-BID from His-tagged Mcl-1 (171 to 327 residues) (unknown origin) expressed in Escherichia coli BL21 (DE3) cells incubated for 3 hrs by fluorescence polarization assay.
A further assay deals with MM1.S. Briefly: Cytotoxicity against human MM1.S cells after 24 hrs by MTT assay. Format: functional, cell-based.
Assay [3] can be described thus: Cytotoxicity against human MOLP8 cells after 24 hrs by MTT assay. It is filed as functional, cell-based. The settings on record: MOLP-8, 24 h.
Assay [4] addresses T1, Induced myeloid leukemia cell differentiation protein Mcl-1. Put plainly: Inhibition of N-terminal biotin-labeled BIM BH3 peptide (141 to 166 residues) binding to His-tagged Mcl-1 (171 to 327 residues) (unknown origin) expressed in Escherichia coli BL21 (DE3) cells incubated for >=30 mins by […].
The subject of a further assay is NCI-H929. Briefly: Cytotoxicity against human NCI-H929 cells after 24 hrs by MTT assay. Format: functional, cell-based. The settings on record: NCI-H929, 24 h.
The next assay deals with L-363. Put plainly: Cytotoxicity against human L-363 cells after 24 hrs by MTT assay. Format: functional, cell-based. The settings on record: L-363, 24 h.
Another assay concerns KMS-12-PE. Put plainly: Cytotoxicity against human KMS-12-PE cells after 24 hrs by MTT assay. It is filed as functional, cell-based.
Another assay concerns K562. Put plainly: Cytotoxicity against human K562 cells after 24 hrs by MTT assay. Format: functional, cell-based. To be noted: K562, 24 h.

T1 sequence (Q07820 whole entry, the tested form may be a part): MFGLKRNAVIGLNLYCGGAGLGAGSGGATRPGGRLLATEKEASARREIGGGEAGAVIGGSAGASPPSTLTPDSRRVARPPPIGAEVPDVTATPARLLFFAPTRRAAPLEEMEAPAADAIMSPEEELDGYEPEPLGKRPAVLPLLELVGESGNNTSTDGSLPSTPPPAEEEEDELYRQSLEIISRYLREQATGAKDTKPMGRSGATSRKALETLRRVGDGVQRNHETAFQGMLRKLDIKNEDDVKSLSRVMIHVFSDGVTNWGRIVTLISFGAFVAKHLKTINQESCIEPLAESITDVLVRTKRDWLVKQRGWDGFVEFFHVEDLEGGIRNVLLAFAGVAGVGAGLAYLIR

For the compound `Cc1nn(C)c(COc2ccc(N3CCN(S(=O)(=O)N(C)C)CC3)cc2)c1-c1cccc2c(CCCOc3cccc4ccccc34)c(C(=O)O)n(CCN3CCOCC3)c12`, the IC50 in assay [1] was 0.0125 µM; with LP-1 it was 10.6 µM; in the assay with MM1.S, over 40 µM; in assay [3] it was 9.7 µM; in assay [4] it was 0.0088 µM; with NCI-H929, 8.6 µM. The IC50 in the assay with L-363 was 11.8 µM; in the assay with KMS-12-PE, over 40 µM; in the assay on K562, 13.9 µM. In addition, the Ki in assay [2] worked out at 0.0047 µM.
Take `c1ccc(-c2nccc3c2[nH]c2ccccc23)nc1`: the 50% inhibitory concentration (IC50) in assay [1] was over 10 µM; in the assay with LP-1, over 40 µM; with MM1.S, over 40 µM; in [3], over 40 µM; in assay [4] it was over 10 µM; in the assay on NCI-H929 it was over 40 µM. Also, the half-maximal inhibitory concentration (IC50) with L-363, with KMS-12-PE and in the assay on K562 was over 40 µM throughout. Also, the inhibition constant Ki in assay [2] is over 10 µM.
For the compound `CCn1c2ccccc2c2ccnc(-c3ccccn3)c21`, the IC50 is over 10 µM in [1]; over 40 µM with LP-1; over 40 µM in the assay on MM1.S; over 40 µM in assay [3]; over 10 µM in [4]; over 40 µM in the assay on NCI-H929. The IC50 in the assay on L-363, in the assay on KMS-12-PE and in the assay on K562 was over 40 µM throughout. This compound also gave a Ki in [2] of over 10 µM.
As to `c1ccc(Cn2c3ccccc3c3ccnc(-c4ccccn4)c32)cc1`, the half-maximal inhibitory concentration (IC50) in [1] was over 10 µM; with LP-1 it was over 40 µM; in the assay on MM1.S, over 40 µM; in assay [3] it was over 40 µM; in [4], over 10 µM; in the assay on NCI-H929, 37.4 µM. Besides, the figures for the concentration for half-maximal inhibition (IC50) in the assay on L-363, in the assay on KMS-12-PE and in the assay with K562 were over 40 µM, over 40 µM and 32.8 µM, respectively. The same compound showed a Ki in assay [2] of 6.13 µM.
Take `CCOCCn1c2ccccc2c2ccnc(-c3ccccn3)c21`: the IC50 in assay [1] is over 10 µM; in the assay with LP-1, over 40 µM; in the assay with MM1.S it was over 40 µM; in [3], over 40 µM; in [4], over 10 µM; with NCI-H929, over 40 µM. The IC50 with L-363, in the assay with KMS-12-PE and with K562 was over 40 µM throughout. Also, in assay [2], the Ki was over 10 µM.
For `Cc1ccc(Cn2c3ccccc3c3ccnc(-c4ccccn4)c32)cc1`, the IC50 in assay [1] was over 10 µM; with LP-1, 25.8 µM; with MM1.S, over 40 µM; in assay [3], 27.5 µM; in assay [4] it was 9.08 µM; in the assay on NCI-H929 it was 17.9 µM. Moreover, the concentration for half-maximal inhibition (IC50) was 33.5 µM in the assay on L-363, over 40 µM with KMS-12-PE and 22.6 µM with K562. In assay [2], this compound returned an inhibition constant Ki of 4.93 µM.
As for `Fc1ccc(Cn2c3ccccc3c3ccnc(-c4ccccn4)c32)cc1`, the IC50 in [1] is over 10 µM; in the assay on LP-1, 33.6 µM; in the assay on MM1.S, over 40 µM; in assay [3] it was 34.7 µM; in assay [4], over 10 µM; in the assay with NCI-H929, 25.4 µM. Further, the IC50 with L-363 was over 40 µM; with KMS-12-PE, over 40 µM; in the assay with K562, 28.9 µM. Besides, affinity in assay [2] was put at a Ki of 5.52 µM.
Turning to `c1ccc(OCCn2c3ccccc3c3ccnc(-c4ccccn4)c32)cc1`, the half-inhibitory concentration (IC50) in assay [1] was over 10 µM; with LP-1, over 40 µM; in the assay on MM1.S it was over 40 µM; in assay [3], over 40 µM; in assay [4], over 10 µM; in the assay on NCI-H929, over 40 µM. Also, the half-inhibitory concentration (IC50) with L-363, with KMS-12-PE and in the assay on K562 was over 40 µM in each case. Moreover, the Ki in assay [2] is over 10 µM.
On to `c1ccc(-c2nccc3c4ccccc4n(CC4CC4)c23)nc1`, for which the IC50 is over 10 µM in [1]; over 40 µM with LP-1; over 40 µM in the assay with MM1.S; over 40 µM in [3]; over 10 µM in assay [4]; over 40 µM in the assay on NCI-H929. The 50% inhibitory concentration (IC50) in the assay on L-363, with KMS-12-PE and in the assay on K562 was over 40 µM in each case. For the same compound, the Ki in assay [2] was over 10 µM.
Take `c1ccc(-c2nccc3c4ccccc4n(Cc4ccc5ccccc5c4)c23)nc1`: the IC50 in [1] was over 10 µM; with LP-1, over 40 µM; with MM1.S it was over 40 µM; in assay [3] it was over 40 µM; in [4] it was 8.52 µM; in the assay on NCI-H929 it was over 40 µM. The half-inhibitory concentration (IC50) in the assay on L-363, in the assay with KMS-12-PE and with K562 was over 40 µM throughout. Also, the affinity in [2], expressed as Ki, was 6.61 µM.
On to `c1ccc(COCCn2c3ccccc3c3ccnc(-c4ccccn4)c32)cc1`, for which the IC50 is over 10 µM in assay [1]; over 40 µM in the assay on LP-1; over 40 µM with MM1.S; over 40 µM in assay [3]; over 10 µM in assay [4]; over 40 µM in the assay on NCI-H929. For the same compound, the concentration for half-maximal inhibition (IC50) in the assay with L-363, in the assay on KMS-12-PE and with K562 was over 40 µM throughout. In addition, in assay [2], affinity was put at a Ki of 7.88 µM.
For the compound `c1ccc(CCn2c3ccccc3c3ccnc(-c4ccccn4)c32)cc1`, the 50% inhibitory concentration (IC50) in assay [1] is over 10 µM; in the assay with LP-1, 18.8 µM; in the assay on MM1.S it was over 40 µM; in assay [3], 21.4 µM; in assay [4] it was 8.81 µM; with NCI-H929 it was 14.3 µM. Further, the figures for the IC50 in the assay on L-363, in the assay with KMS-12-PE and in the assay with K562 were 24.9 µM, over 40 µM and 17.9 µM, respectively. In assay [2], this compound yielded an inhibitory constant (Ki) of 3.13 µM.

(Values after ChEMBL document CHEMBL4725364, “Discovery of a Copper-Based Mcl-1 Inhibitor as an Effective Antitumor Agent” (J Med Chem, 2020).)
